For orientation: Papp means the rate of passage across a membrane or cell layer, normalised by area and donor concentration. A word on the IC50: it is the concentration that gives 50% inhibition. What is called logD is the decadic logarithm of the distribution of all forms, ionised or not, between an organic phase and buffer at a given pH.

≈ marks a conversion by molar mass, not a printed value.

Series [1] in a line: Ratio of drug concentration in brain to plasma in C57BL/6 mouse measured at 5 mins. It is filed as ADME, organism-based. The following applies: read-out: BPR.
The nature of series [2]: Drug uptake in C57BL/6 mouse brain at 3 mg/kg, iv measured at 5 mins. It is filed as ADME, organism-based. The conditions noted are these: read-out: Drug uptake.
Series [3] is described as follows: Apparent permeability of the compound at pH 6.5 to 7.4 by PAMPA. Format: ADME. A general note: In PAMPA a lipid-coated filter parts donor from acceptor wells.
Series [4] has as its target T1, 2-hydroxyacylsphingosine 1-beta-galactosyltransferase (Homo sapiens, UniProt Q16880).
T1 sequence (Q16880 whole entry): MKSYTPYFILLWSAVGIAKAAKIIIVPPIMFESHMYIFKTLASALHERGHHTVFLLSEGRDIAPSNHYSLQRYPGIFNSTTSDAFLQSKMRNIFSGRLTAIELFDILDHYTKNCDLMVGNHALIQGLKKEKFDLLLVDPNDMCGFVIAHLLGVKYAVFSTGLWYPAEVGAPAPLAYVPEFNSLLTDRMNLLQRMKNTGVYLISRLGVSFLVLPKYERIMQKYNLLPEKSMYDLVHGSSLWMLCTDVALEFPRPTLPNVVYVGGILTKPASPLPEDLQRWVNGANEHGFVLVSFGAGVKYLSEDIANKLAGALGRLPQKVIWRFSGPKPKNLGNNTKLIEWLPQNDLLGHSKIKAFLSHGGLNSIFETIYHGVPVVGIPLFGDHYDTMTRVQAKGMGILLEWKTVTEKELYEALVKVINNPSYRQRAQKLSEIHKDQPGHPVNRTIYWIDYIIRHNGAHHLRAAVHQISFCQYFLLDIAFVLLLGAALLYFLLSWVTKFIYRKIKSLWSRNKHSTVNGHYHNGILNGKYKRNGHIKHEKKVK
Briefly: Inhibition of UGT8 in human OE19 cells assessed as redcution in GalCer accumulation measured after 72 hrs by LC-MS/MS analysis. It is filed as cell-based.

Series [5] in a line: Distribution coefficient, log D of the compound. It is filed as physicochemical. The conditions noted are these: octanol/water.
Series [6] in a line: Intrinsic clearance in human liver microsomes. Format: ADME, Microsome. The conditions noted are these: read-out: CLH. On the technique in general: Microsomes from liver hold many membrane-bound enzymes, among them those of drug oxidation.
The target in series [7] is T1, 2-hydroxyacylsphingosine 1-beta-galactosyltransferase. Nature of the series: Inhibition of UGT8 in human OE19 cells assessed as redcution in SFT accumulation measured after 72 hrs by LC-MS/MS analysis. It is filed as cell-based.
Series [8] is described as follows: Ratio of drug concentration in brain to plasma in C57BL/6 mouse measured at 1 hr. The following applies: read-out: BPR. It is filed as ADME, organism-based.
The nature of series [9]: Drug uptake in C57BL/6 mouse brain at 3 mg/kg, iv measured at 1 hr. It is filed as ADME, organism-based. The following applies: read-out: Drug uptake.
A short description of series [10]: Thermodynamic solubility of the compound […] at pH 7.4. It is filed as physicochemical. The following applies: read-out: Therm_solubility.

For the compound `CNC(=O)c1csc2c(C(F)(F)F)cc(N3CCC(OC(=O)N[C@@H](C)C4CC4)CC3)nc12`, in [1], the Kp at 5 min amounted to 0.76. For the same compound, the concentration at 5 min in series [2] was 1480 ng/mL. Also, the Papp in series [3] is more than 80 ×10⁻⁶ cm/s. Moreover, the IC50 in series [4] was determined as 1.1 nM; in [7], 0.9 nM. Besides, the logD in series [5] came to 4.29. For the same compound, the microsomal CLint in series [6] came to 70 µL/min/mg. Also, the Kp at 1 h in series [8] worked out at 0.42. In addition, the concentration at 1 h in [9] came out at 143 ng/mL. The solubility thermodynamic in [10] was less than 0.5 µM.

In the case of `CNC(=O)c1csc2c(C(F)(F)F)cc(N3CCN(CC(=O)NC(C)C)CC3)nc12`, the values for the 50% inhibitory concentration (IC50) in series [4] and in [7] were 90 nM and 67 nM, respectively.

On to `CNC(=O)c1csc2c(C(F)(F)F)cc(N3CCC(OC(=O)NCC4CC4)CC3)nc12`, for which the Kp at 5 min in series [1] amounted to 0.91. For the same compound, the concentration at 5 min in series [2] was determined as 2140 ng/mL. Also, the Papp in [3] is more than 80 ×10⁻⁶ cm/s. Further, the results for the IC50 in series [4] and in series [7] were 3 nM and 1 nM, respectively. In [5], this compound had a logD of 4.2. The microsomal CLint in series [6] amounted to 59 µL/min/mg. Besides, the Kp at 1 h in [8] worked out at 0.31. In addition, in series [9], the concentration at 1 h was determined as 132 ng/mL.

`CNC(=O)c1csc2c(C(F)(F)F)cc(N3CCC(OC(=O)NC(C)C)CC3)nc12`: the Kp at 5 min in series [1] turned out to be 1.88. Further, the concentration at 5 min in series [2] came out at 2700 ng/mL. For the same compound, the Papp in [3] is more than 80 ×10⁻⁶ cm/s. The IC50 in [4] and in [7] was 2 nM in each case. In [5], this compound returned a logD of 4.35. Also, in series [6], the microsomal CLint worked out at 46 µL/min/mg. In series [8], the Kp at 1 h turned out to be 1.03. Further, in series [9], the concentration at 1 h was 302 ng/mL.

For the compound `CNC(=O)c1csc2c(C(F)(F)F)cc(N3CC(NC(=O)OCC4CC4)C3)nc12`, the IC50 in series [4] was 43 nM; in [7], 48 nM.

For `CNC(=O)c1csc2c(C(F)(F)F)cc(N3CCC(OC(=O)NCC4CC4)C3)nc12` (stereo not drawn), the IC50 in [7] worked out at 610 nM.

On to `CNC(=O)c1csc2c(C(F)(F)F)cc(N3CCN(CC(O)COC(C)(C)C)CC3)nc12` (stereo not drawn), for which the Kp at 5 min in [1] was determined as 0.93. The concentration at 5 min in [2] amounted to 1700 ng/mL. The Papp in series [3] is 78 ×10⁻⁶ cm/s. Besides, the values for the IC50 in series [4] and in series [7] were 350 nM and 190 nM, respectively. The compound also came in with a logD in series [5] of 3.7. In addition, the microsomal CLint in series [6] is 51 µL/min/mg. For the same compound, the Kp at 1 h in [8] was 0.35. The concentration at 1 h in series [9] stood at 210 ng/mL.

As to `CCC(=O)c1csc2c(C(F)(F)F)cc(N3CCN(CC(=O)NC(C)C)CC3)nc12`, in series [1], the Kp at 5 min was found to be 0.83. Moreover, the concentration at 5 min in series [2] worked out at 1400 ng/mL. Moreover, the Papp in series [3] was more than 80 ×10⁻⁶ cm/s. For the same compound, the IC50 in [4] came out at 120 nM; in series [7] it was 97 nM. This compound registered a logD in [5] of 3.6. Also, the microsomal CLint in [6] stood at 36 µL/min/mg. For the same compound, the Kp at 1 h in series [8] is 0.72. For the same compound, the concentration at 1 h in series [9] stood at 270 ng/mL.

As to `CNC(=O)c1csc2c(C(F)(F)F)cc(N3CCN(C(=O)COC(C)C)CC3)nc12`, in series [1], the Kp at 5 min came out at 0.07. Moreover, the concentration at 5 min in series [2] worked out at 228 ng/mL. Also, the Papp in series [3] came out at 69 ×10⁻⁶ cm/s. For the same compound, the IC50 in series [4] was found to be 450 nM; in [7], 660 nM. In [5], this compound registered a logD of 3.1. In [6], the microsomal CLint amounted to 42 µL/min/mg. Also, in series [8], the Kp at 1 h was determined as 0.06. Moreover, the concentration at 1 h in series [9] was determined as 8 ng/mL.

Consider `CNC(=O)c1csc2c(C(F)(F)F)cc(N3CCN(C(C)C(=O)NC4CC4)CC3)nc12` (stereo not drawn), for which the Kp at 5 min in [1] stood at 0.01. Besides, the concentration at 5 min in series [2] was found to be 43 ng/mL. Moreover, in series [3], the Papp was determined as 75 ×10⁻⁶ cm/s. Also, the IC50 is 360 nM in [4] and 170 nM in [7]. The compound also displayed a logD in series [5] of 3.3. The microsomal CLint in series [6] amounted to 34 µL/min/mg.

For the compound `CNC(=O)c1csc2c(C(F)(F)F)cc(N3CCC(OC(=O)NCCOC(F)(F)F)CC3)nc12`, the Kp at 5 min in series [1] was determined as 0.59. In [2], the concentration at 5 min came to 1640 ng/mL. Further, the IC50 turned out to be 0.6 nM in series [4] and 0.4 nM in [7]. In [5], the logD worked out at 4.7. Besides, in series [8], the Kp at 1 h stood at 0.24. Besides, the concentration at 1 h in series [9] was 128 ng/mL. For the same compound, in series [10], the solubility thermodynamic was less than 0.5 µM.

For `CNC(=O)c1csc2c(C(F)(F)F)cc(N3CCC(NC(=O)OCC4CC4)CC3)nc12`, the values for the IC50 in series [4] and in series [7] were 37 nM and 18 nM, respectively.

As for `CNC(=O)c1csc2c(C(F)(F)F)cc(N3CCC(OC(=O)NCCN4CCCC4)CC3)nc12`, the IC50 in [7] is 510 nM. In [10], the solubility thermodynamic was 430 µM (≈ 215 µg/mL).

Take `CNC(=O)c1csc2c(C(F)(F)F)cc(N3CCN(CC(=O)C(C)(C)C)CC3)nc12`: in [1], the Kp at 5 min was found to be 0.81. Further, in series [2], the concentration at 5 min amounted to 1100 ng/mL. For the same compound, the Papp in series [3] is more than 80 ×10⁻⁶ cm/s. Moreover, the half-maximal inhibitory concentration (IC50) in series [4] was 1400 nM; in series [7], 610 nM. The compound also gave a logD in series [5] of 3.3. Besides, in [6], the microsomal CLint turned out to be 5 µL/min/mg. Also, in series [8], the Kp at 1 h was 0.54. In addition, the concentration at 1 h in series [9] was determined as 170 ng/mL.

In the case of `CNC(=O)c1csc2c(C(F)(F)F)cc(N3CCC(OC(=O)N4CC(CN(C)C)C4)CC3)nc12`, the IC50 in series [7] was 980 nM. Moreover, the solubility thermodynamic in series [10] came to 420 µM (≈ 210 µg/mL).

Consider `CC[C@H](C)NC(=O)OC1CCN(c2cc(C(F)(F)F)c3scc(C(=O)NC)c3n2)CC1`, for which the Kp at 5 min in series [1] worked out at 1.45. In addition, the concentration at 5 min in series [2] came out at 2370 ng/mL. Also, the IC50 in [4] is 0.4 nM; in series [7], 0.9 nM. In series [5], this compound returned a logD of 4.56. Also, the Kp at 1 h in series [8] worked out at 0.76. Moreover, the concentration at 1 h in series [9] was 192 ng/mL. For the same compound, in series [10], the solubility thermodynamic is less than 0.5 µM.

Consider `CNC(=O)c1csc2c(C(F)(F)F)cc(N3CCC(OC(=O)N4CC(OC(F)(F)F)C4)CC3)nc12`, for which, in series [1], the Kp at 5 min is 1.67. In [2], the concentration at 5 min was found to be 3430 ng/mL. Also, the Papp in [3] was more than 80 ×10⁻⁶ cm/s. In addition, the results for the IC50 in series [4] and in [7] were 2.9 nM and 1.7 nM, respectively. The logD in series [5] was 5.13. Besides, the microsomal CLint in series [6] was 41 µL/min/mg. In [8], the Kp at 1 h turned out to be 0.59. Also, the concentration at 1 h in series [9] stood at 316 ng/mL. Further, the solubility thermodynamic in [10] is less than 0.5 µM.

With `CC(C)NC(=O)CN1CCN(c2cc(C(F)(F)F)c3scc(C(=O)N4CCC4)c3n2)CC1`, the Papp in series [3] was determined as 66 ×10⁻⁶ cm/s. The IC50 worked out at 320 nM in series [4] and 640 nM in [7]. For the same compound, the logD in series [5] worked out at 2.7. In series [6], the microsomal CLint was determined as 27 µL/min/mg.

Consider `CNC(=O)c1csc2c(C(F)(F)F)cc(N3CCN(CCOC(C)C)CC3)nc12`, for which the Kp at 5 min in series [1] came out at 1.8. Further, the concentration at 5 min in series [2] came to 3000 ng/mL. Also, the Papp in [3] was more than 80 ×10⁻⁶ cm/s. Also, the IC50 is 200 nM in [4] and 330 nM in [7]. For the same compound, the logD in [5] is 3.6. In addition, in series [6], the microsomal CLint was 96 µL/min/mg. In addition, in [8], the Kp at 1 h stood at 1. The concentration at 1 h in series [9] came out at 1700 ng/mL.

Regarding `CNC(=O)c1csc2c(C(F)(F)F)cc(N3CC(OC(=O)NCC4CC4)C3)nc12`, the IC50 in series [7] came out at 200 nM.

The values above are taken from ChEMBL document CHEMBL4725449, “Brain Penetrable Inhibitors of Ceramide Galactosyltransferase for the Treatment of Lysosomal Storage Disorders” (ACS Med Chem Lett, 2020).
